Values of other authors in patent US20260015580A1, “Methods of Producing and Using Avian Embryonic Stem Cells and Avian Telencephalic Organoids” (The Regents of the University of California, priority 2022, published 2026).

System: phosphorylation of ERK in C26 cells
Conditions: read-out: IC50, suppressing the phosphorylation of ERK

SMILES: O=C(NOC[C@H](O)CO)c1ccc(F)c(F)c1Nc1ccc(I)cc1F [PD0325901]
- IC50: 0.33 nM
